According to patent publication US20250179120A1, “CYCLIC PEPTIDE OR SALT THEREOF, AND MDMX INHIBITOR” (FUJIFILM Corporation, priority 2022, published 2025):
Numbered stars: 1 amine (or outer) side, 2 acyl side, 3 side chain; on linkers, the order of the positions; unused ones are H or OH. Square brackets hold non-standard residues; d marks the D form. Peptide text beside a SMILES is read from it. Ala(4-thiazolyl) = N[C@@H](Cc1cscn1)C(=O)O; Phe(4-Cl) = N[C@@H](Cc1ccc(Cl)cc1)C(=O)O; X1 = O=C(CSC[C@H](Cc1cscn1)N[*:1])[*:2]; Phe(4-F) = N[C@@H](Cc1ccc(F)cc1)C(=O)O; NHCH2CH2SCH2CO = O=C(CSCCN[*:1])[*:2]; NMeF = CN[C@@H](Cc1ccccc1)C(=O)O; Tle = CC(C)(C)[C@H](N)C(=O)O; hSer = N[C@@H](CCO)C(=O)O; NMeA = CN[C@@H](C)C(=O)O; dNMeA = CN[C@H](C)C(=O)O; Nme = COCCNCC(=O)O

Test: Evaluation of cell membrane permeability (MDCKII permeation test, Papp)
Assay type: in vitro ADME
Settings: MDCK, MDCKII cell layer, 10 μM in HBSS, apical to basal, 37° C.; for Papp A→B: 2 hours
Experimental: Evaluation of the cell membrane permeability of the cyclic peptide according to the embodiment of the present invention was carried out.
300 μL of MDCKII cells (ECACC standard cell line) were seeded at a density of 1.0×10^6 cells/mL onto an insert (dedicated for a 24-well plate, pore diameter: 3.0 μm, manufactured by Corning Incorporated) and cultured at 37° C. in a 5% CO2 environment. After three days, the electric resistance value of the cell layer was measured (using a measuring device), and it was confirmed that the cell layer had high barrier properties (>100 Ω·cm^2).
After the insert was washed by being immersed in HBSS (phenol red-free, the same applies hereinafter), 200 μL of a sample prepared in 10 μM/HBSS was added thereto, and the insert was allowed to stand in a low-adsorption 24-well plate containing 900 μL of HBSS (37° C., 5% CO2). After 2 hours, each liquid of an upper layer (apical) and a lower layer (basal) of the insert (10 μL for apical and 500 μL for basal) was recovered. After testing, no leakage was confirmed with Lucifer Yellow, which is a non-permeable fluorescent dye.
The device used was LC/MS/MS (triple quadrupole type).
Eluent: A) 5 mM ammonium formate, 0.2% formic acid/H2O, B) 0.1% formic acid/MeCN, flow rate: 0.5 mL/min, injection volume: 2 μL, column: ACQUITY UPLC BEH C18 Column, 1.7 μm, 2.1 mm×50 mm (manufactured by Waters Corporation), temperature: 70° C., gradient (% B): 2% (0 to 0.5 min)→98% (2 to 3 min)→2% (3 to 5 min), ionization: ESI, detection mode: MRM (positive)
Based on the calculation expression shown in Expression (1), a permeability coefficient Papp, which represents the membrane permeability, was calculated from each quantitative value.
C0: initial concentration (10 μM)
S: surface area (0.33 cm^2) of single layer membrane
dC/dt: concentration change at basal [μM/s]

SMILES	Papp A→B	Papp A→B at 2 h, 10 μM (dog)
COCC[C@@H]1NC(=O)[C@@H](C)N(C)C(=O)[C@H](Cc2ccccc2)N(C)C(=O)[C@H](Cc2ccc(Cl)cc2)NC(=O)[C@H]([C@@H](C)O)NC(=O)[C@H](Cc2ccc(F)cc2)NC(=O)[C@@H]2CCCN2C(=O)CSCCNC(=O)[C@H](C)N(C)C1=O [compound 3] (cyclo([NMeA][NHCH2CH2SCH2CO]P[Phe(4-F)]T[Phe(4-Cl)][NMeF][dNMeA][hSer](Me)))	0.25 to 0.5 ×10⁻⁶ cm/s	
COCC[C@@H]1NC(=O)[C@H](C)N(C)C(=O)[C@H](Cc2ccccc2)N(C)C(=O)[C@H](Cc2ccc(Cl)cc2)NC(=O)[C@H]([C@@H](C)O)NC(=O)[C@H](Cc2ccc(F)cc2)NC(=O)[C@@H]2CCCN2C(=O)CSCCNC(=O)[C@H](C)N(C)C1=O [compound 4] (cyclo([NMeA][hSer](Me)[NMeA][NHCH2CH2SCH2CO]P[Phe(4-F)]T[Phe(4-Cl)][NMeF]))	0.1 to 0.25 ×10⁻⁶ cm/s	
COCC[C@@H]1NC(=O)[C@H](C)N(C)C(=O)[C@H](Cc2ccccc2)N(C)C(=O)[C@H](Cc2ccc(Cl)cc2)NC(=O)[C@H]([C@@H](C)O)NC(=O)[C@H](Cc2ccc(F)cc2)NC(=O)[C@@H]2CCCN2C(=O)CSC[C@H](Cc2cscn2)NC(=O)[C@H](C)N(C)C1=O [compound 5] (cyclo([NMeA][hSer](Me)[NMeA][X1]P[Phe(4-F)]T[Phe(4-Cl)][NMeF]))	0.1 to 0.25 ×10⁻⁶ cm/s	
COCC[C@@H]1NC(=O)[C@H](C)N(C)C(=O)[C@H](Cc2ccccc2)N(C)C(=O)[C@H](Cc2ccc(Cl)cc2)NC(=O)[C@H]([C@@H](C)O)NC(=O)[C@H](Cc2ccc(F)cc2)NC(=O)CN(CCOC)C(=O)CSC[C@H](Cc2cscn2)NC(=O)[C@H](C)N(C)C1=O [compound 6] (cyclo([NMeA][hSer](Me)[NMeA][X1][Nme][Phe(4-F)]T[Phe(4-Cl)][NMeF]))	0.1 to 0.25 ×10⁻⁶ cm/s	
COCC[C@@H]1NC(=O)[C@H]2CCCN2C(=O)[C@H](Cc2ccccc2)N(C)C(=O)[C@H](Cc2ccc(Cl)cc2)NC(=O)[C@H](C(C)(C)C)NC(=O)[C@H](Cc2ccc(F)cc2)NC(=O)[C@H](C)N(C)C(=O)[C@@H](C)N(C)C(=O)[C@H](Cc2cscn2)NC(=O)[C@H](C)N(C)C1=O [Comparative Example 1, reference compound] (cyclo([Ala(4-thiazolyl)][dNMeA][NMeA][Phe(4-F)][Tle][Phe(4-Cl)][NMeF][dP][hSer](Me)[NMeA]))		< 0.1 ×10⁻⁶ cm/s
